According to ChEMBL document CHEMBL3885861, “Open TG-GATES”:

Organism: Rattus norvegicus
Assay: Open TG-GATES - Regimen: Single
Type: toxicity, organism-based, Sprague-Dawley
Parameters: regimen Single, gender Male, age 6 weeks
Details: in vivo, po, route gavage; for APTT / Bas / Eos / Fbg / Hb / Ht / Lym / MCH / MCHC / MCV / Mono / PT / Plat / RBC / Ret / WBC: tissue Blood; for KIDNEY_L / KIDNEY_R / KIDNEY_TOTAL: tissue Kidney; for LIVER: tissue Liver
[1] = 0 mg/kg, 3 h, dose level Control
[2] = 0 mg/kg, 3 h, tissue Plasma, dose level Control
[3] = 0 mg/kg, 6 h, dose level Control
[4] = 0 mg/kg, 6 h, tissue Plasma, dose level Control
[5] = 0 mg/kg, 9 h, dose level Control
[6] = 0 mg/kg, 9 h, tissue Plasma, dose level Control
[7] = 0 mg/kg, 24 h, dose level Control
[8] = 0 mg/kg, 24 h, tissue Plasma, dose level Control
[9] = 1 mg/kg, 3 h, tissue Plasma, dose level Low
[10] = 1 mg/kg, 6 h, tissue Plasma, dose level Low
[11] = 1 mg/kg, 9 h, tissue Plasma, dose level Low
[12] = 1 mg/kg, 24 h, tissue Plasma, dose level Low

## C#C[C@]1(O)CC[C@H]2[C@@H]3CCc4cc(O)ccc4[C@H]3CC[C@@]21C [ETHINYL ESTRADIOL]
[1]
  TERMINAL_BW: 196.6 g
  APTT: 16.9 s
  Bas: 0%
  Eos: 0.8%
  Fbg: 256 mg/dL
  Hb: 13.2 g/dL
  Ht: 39.9%
  Lym: 79.4%
  MCH: 21.8 pg
  MCHC: 33.1%
  MCV: 66 fL
  Mono: 3.8%
  PT: 12.2 s
  Plat: 117 x10_4/uL
  RBC: 604.8 x10_4/ul
  Ret: 9.9%
  WBC: 82.1 x10_2/uL
  KIDNEY_L: 0.8 g
  KIDNEY_R: 0.8 g
  KIDNEY_TOTAL: 1.7 g
  LIVER: 8.6 g
[2]
  ALP: 1558.8 IU/L
  ALT: 44 IU/L
  AST: 77.6 IU/L
  BUN: 10.6 mg/dL
  CRE: 0.2 mg/dL
  Ca: 11.3 mg/dL
  Cl: 107 meq/L
  DBIL: 0.02 mg/dL
  IP: 8.6 mg/dL
  K: 4 meq/L
  LDH: 56 IU/L
  Na: 142.4 meq/L
  PL: 157.6 mg/dL
  RALB: 2.6 g/dL
  TBIL: 0.044 mg/dL
  TC: 86.2 mg/dL
  TP: 5.5 g/dL
  gamma-GTP: 1.2 IU/L
[3]
  TERMINAL_BW: 194 g
  APTT: 16.2 s
  Bas: 0%
  Eos: 1%
  Fbg: 265.8 mg/dL
  Hb: 13.2 g/dL
  Ht: 39.3%
  Lym: 75%
  MCHC: 33.6%
  MCV: 63.4 fL
  PT: 12.3 s
  Plat: 123.8 x10_4/uL
  RBC: 620.2 x10_4/ul
  Ret: 9.8%
  WBC: 90.8 x10_2/uL
  KIDNEY_L: 0.8 g
  KIDNEY_R: 0.8 g
  KIDNEY_TOTAL: 1.7 g
  LIVER: 7.6 g
[4]
  ALP: 1686.2 IU/L
  ALT: 42 IU/L
  AST: 79.2 IU/L
  BUN: 7.6 mg/dL
  CRE: 0.2 mg/dL
  Ca: 10.8 mg/dL
  Cl: 109.4 meq/L
  DBIL: 0.012 mg/dL
  IP: 10.2 mg/dL
  K: 4 meq/L
  LDH: 53.6 IU/L
  Na: 144.6 meq/L
  PL: 122.6 mg/dL
  RALB: 2.6 g/dL
  TBIL: 0.046 mg/dL
  TC: 75.6 mg/dL
  TP: 5.4 g/dL
  gamma-GTP: 1 IU/L
[5]
  TERMINAL_BW: 195.8 g
  Bas: 0%
  Eos: 1%
  Fbg: 265.2 mg/dL
  Hb: 12.8 g/dL
  Ht: 38%
  Lym: 72.2%
  MCH: 21.8 pg
  MCHC: 33.6%
  MCV: 64.8 fL
  PT: 12.4 s
  Plat: 119.3 x10_4/uL
  RBC: 588 x10_4/ul
  Ret: 9.5%
  WBC: 73.4 x10_2/uL
  KIDNEY_L: 0.9 g
  KIDNEY_R: 0.9 g
  KIDNEY_TOTAL: 1.7 g
  LIVER: 7 g
[6]
  ALP: 1662.8 IU/L
  ALT: 42 IU/L
  AST: 75 IU/L
  BUN: 9.2 mg/dL
  CRE: 0.2 mg/dL
  Ca: 10.5 mg/dL
  Cl: 107.8 meq/L
  DBIL: 0.01 mg/dL
  IP: 10.7 mg/dL
  K: 3.8 meq/L
  LDH: 42 IU/L
  Na: 144 meq/L
  PL: 125.4 mg/dL
  RALB: 2.5 g/dL
  TBIL: 0.04 mg/dL
  TC: 77 mg/dL
  TP: 5.2 g/dL
  gamma-GTP: 1.2 IU/L
[7]
  TERMINAL_BW: 203.2 g
  APTT: 16.4 s
  Bas: 0%
  Eos: 1%
  Fbg: 245.4 mg/dL
  Hb: 12.9 g/dL
  Ht: 38.3%
  Lym: 76.2%
  MCH: 21.6 pg
  MCHC: 33.6%
  MCV: 64.4 fL
  Mono: 3.6%
  PT: 12.5 s
  Plat: 112.7 x10_4/uL
  RBC: 594.4 x10_4/ul
  Ret: 8.5%
  WBC: 103.2 x10_2/uL
  KIDNEY_L: 0.9 g
  KIDNEY_R: 0.9 g
  KIDNEY_TOTAL: 1.7 g
  LIVER: 8.9 g
[8]
  ALP: 1908.8 IU/L
  ALT: 52.2 IU/L
  AST: 78.6 IU/L
  BUN: 13.8 mg/dL
  CRE: 0.2 mg/dL
  Cl: 104.8 meq/L
  DBIL: 0.01 mg/dL
  GLC: 194.2 mg/dL
  IP: 7.7 mg/dL
  LDH: 62.4 IU/L
  Na: 141 meq/L
  PL: 136.2 mg/dL
  RALB: 2.5 g/dL
  TBIL: 0.034 mg/dL
  TC: 84.6 mg/dL
  TP: 5.4 g/dL
  gamma-GTP: 0.8 IU/L
1 mg/kg, 3 h, dose level Low
  TERMINAL_BW: 195 g
  APTT: 16.3 s
  Bas: 0%
  Eos: 1%
  Fbg: 258.2 mg/dL
  Hb: 13 g/dL
  Ht: 39.1%
  Lym: 80.2%
  MCH: 21.9 pg
  MCHC: 33.4%
  MCV: 65.4 fL
  Mono: 3.4%
  PT: 12.3 s
  Plat: 118.9 x10_4/uL
  RBC: 598.2 x10_4/ul
  Ret: 9.4%
  WBC: 96.2 x10_2/uL
  KIDNEY_L: 0.8 g
  KIDNEY_R: 0.8 g
  KIDNEY_TOTAL: 1.6 g
  LIVER: 8.5 g
[9]
  ALP: 1630.2 IU/L
  ALT: 49 IU/L
  AST: 78.4 IU/L
  BUN: 11 mg/dL
  CRE: 0.2 mg/dL
  Cl: 106 meq/L
  IP: 9.2 mg/dL
  LDH: 54.2 IU/L
  PL: 146.4 mg/dL
  RALB: 2.6 g/dL
  TBIL: 0.038 mg/dL
  TC: 77.6 mg/dL
  TP: 5.5 g/dL
1 mg/kg, 6 h, dose level Low
  TERMINAL_BW: 195.9 g
  APTT: 15.3 s
  Bas: 0%
  Eos: 1%
  Fbg: 262.8 mg/dL
  Hb: 12.9 g/dL
  Ht: 38.6%
  Lym: 68.6%
  MCH: 21.8 pg
  MCHC: 33.5%
  MCV: 65.2 fL
  Mono: 2.4%
  PT: 12.4 s
  Plat: 110.9 x10_4/uL
  RBC: 591.6 x10_4/ul
  Ret: 9.8%
  WBC: 83.7 x10_2/uL
  KIDNEY_L: 0.8 g
  KIDNEY_R: 0.8 g
  KIDNEY_TOTAL: 1.7 g
  LIVER: 8 g
[10]
  ALP: 1545.4 IU/L
  ALT: 40.8 IU/L
  AST: 80.8 IU/L
  BUN: 8 mg/dL
  CRE: 0.2 mg/dL
  Ca: 10.5 mg/dL
  Cl: 109.4 meq/L
  DBIL: 0.01 mg/dL
  IP: 10 mg/dL
  K: 4 meq/L
  LDH: 42.2 IU/L
  Na: 144.6 meq/L
  PL: 112 mg/dL
  RALB: 2.4 g/dL
  TBIL: 0.04 mg/dL
  TC: 55 mg/dL
  TP: 5.2 g/dL
1 mg/kg, 9 h, dose level Low
  TERMINAL_BW: 196.1 g
  APTT: 15.5 s
  Bas: 0%
  Eos: 0.8%
  Fbg: 265.6 mg/dL
  Hb: 12.7 g/dL
  Ht: 37.6%
  Lym: 75.4%
  MCH: 21.9 pg
  MCHC: 33.7%
  MCV: 65.1 fL
  Mono: 2.4%
  PT: 12.8 s
  Plat: 110 x10_4/uL
  RBC: 578.2 x10_4/ul
  Ret: 9.3%
  WBC: 75.5 x10_2/uL
  KIDNEY_L: 0.9 g
  KIDNEY_R: 0.8 g
  KIDNEY_TOTAL: 1.7 g
  LIVER: 7.7 g
[11]
  ALP: 1698.8 IU/L
  ALT: 37.6 IU/L
  AST: 75.6 IU/L
  BUN: 9.2 mg/dL
  CRE: 0.2 mg/dL
  Ca: 10.6 mg/dL
  Cl: 109 meq/L
  DBIL: 0.012 mg/dL
  IP: 10.2 mg/dL
  K: 3.8 meq/L
  LDH: 40.6 IU/L
  Na: 145.2 meq/L
  PL: 96.4 mg/dL
  RALB: 2.5 g/dL
  TBIL: 0.042 mg/dL
  TC: 44.8 mg/dL
  TP: 5.2 g/dL
  gamma-GTP: 1.2 IU/L
1 mg/kg, 24 h, dose level Low
  TERMINAL_BW: 200.1 g
  APTT: 14.9 s
  Bas: 0%
  Eos: 1%
  Fbg: 224.6 mg/dL
  Hb: 13.1 g/dL
  Lym: 75.2%
  MCHC: 34%
  MCV: 62.5 fL
  Mono: 3.4%
  PT: 13.2 s
  Plat: 107.2 x10_4/uL
  RBC: 619.8 x10_4/ul
  Ret: 7.6%
  WBC: 93.7 x10_2/uL
  KIDNEY_L: 0.9 g
  KIDNEY_R: 0.9 g
  KIDNEY_TOTAL: 1.8 g
  LIVER: 9.3 g
[12]
  ALP: 2023.4 IU/L
  AST: 74.8 IU/L
  CRE: 0.2 mg/dL
  Ca: 10.8 mg/dL
  Cl: 106.4 meq/L
  DBIL: 0.024 mg/dL
  IP: 7.4 mg/dL
  K: 4 meq/L
  LDH: 59.6 IU/L
  Na: 142.8 meq/L
  PL: 113.6 mg/dL
  RALB: 2.5 g/dL
  TBIL: 0.034 mg/dL
  TC: 40.8 mg/dL
  TP: 5.3 g/dL
  gamma-GTP: 1.2 IU/L
